# Laboratory results published in article PMC8396040, “Direct Synthesis of Polyaromatic Cyclophanes Containing Bis-Methylene-Interrupted Z-Double Bonds and Study of Their Antitumor Activity In Vitro” (International Journal of Molecular Sciences, 2021).
# Legend:
# [1] = test system: HL-60; assay: Cytotoxicity, flow cytofluorimetry (Guava ViaCount / 7-AAD); assay type: cell-based; conditions: Homo sapiens, mean ± SEM, at least 3 independent experiments
# Method: (§1) The cytotoxicity of the prepared compounds was studied using Jurkat, K562, U937, and HL-60 suspension tumor cells; conditionally normal Hek293 cells; and normal fibroblasts. The IC50 values were determined by flow cytofluorimetry with the Guava ViaCount reagent kit (Millipore, Bedford, MA, USA).
# (§2) Cells (Jurkat, K562, U937, HL-60, HEK293, and normal fibroblasts) were purchased from HPA Culture Collections (Salisbury, UK) and cultured according to standard mammalian tissue culture protocols and the sterile technique. All cell lines used in the study were tested and shown to be free of mycoplasma and other […] contamination. HEK293 and fibroblast cell lines were cultured as monolayers and maintained in Dulbecco’s modified Eagle’s medium (DMEM, Gibco BRL, Waltham, MA, USA) supplemented with 10% fetal bovine serum and 1% penicillin-streptomycin solution at 37 °C in a humidified incubator under a 5% CO2 atmosphere.
# (§3) Cells were maintained in RPMI 1640 (Jurkat, K562, U937, HL60) (Gibco, Waltham, MA, USA) supplemented with 4 mM glutamine, 10% FBS (Sigma, Burlington, MA, USA), and 100 units/ml penicillin–streptomycin (Sigma, Burlington, MA, USA). All types of cells were grown in an atmosphere of 5% CO2 at 37 °C. The cells were subcultured at 2–3-day intervals. Adherent cells (HEK293 and normal fibroblasts) were suspended using trypsin/EDTA and counted after they reached 80% confluency. Cells were then seeded in 24-well plates at 5 × 10^4 cells per well and incubated overnight. Jurkat, K562, U937, and HL60 cells were subcultured at 2-day intervals with a seeding density of 1 × 10^5 cells per 24-well plates in RPMI with 10% FBS.
# (§4) Viability (live/dead) assessment was performed by staining cells with 7-AAD (7-Aminoactinomycin D) (Biolegend, Fell, Germany). After treatment, cells were harvested, washed 1–2 times with phosphate-buffered saline (PBS), and centrifuged at 400× g for 5 min. Cell pellets were resuspended in […] of flow cytometry staining buffer (PBS without Ca^2+ and Mg^2+, 2.5% FBS) and stained with 5 μL of 7-AAD staining solution for 15 min at room temperature in the dark. Samples were acquired on a NovoCyteTM 2000 FlowCytometry System (ACEA) equipped with a 488 nm argon laser. Detection of 7-AAD emission was collected through a 675/30 nm filter in FL4 channel.
# [2] = test system: Hek293; assay: as above; assay type: cell-based; conditions: Homo sapiens, mean ± SEM, at least 3 independent experiments
# Method: as §1, §2, §3, §4
# [3] = test system: Jurkat; assay: as above; assay type: cell-based; conditions: Homo sapiens, mean ± SEM, at least 3 independent experiments
# Method: as §1, §2, §3, §4
# [4] = test system: K562; assay: as above; assay type: cell-based; conditions: Homo sapiens, mean ± SEM, at least 3 independent experiments
# Method: as §1, §2, §3, §4
# [5] = test system: U937; assay: as above; assay type: cell-based; conditions: Homo sapiens, U-937; mean ± SEM, at least 3 independent experiments
# Method: as §1, §2, §3, §4
# [6] = test system: normal fibroblasts; assay: as above; assay type: cell-based; conditions: Fibroblast; mean ± SEM, at least 3 independent experiments; read-out: Fibrobl. (IC50)
# Method: as §1, §2, §3, §4
# [7] = test system: Jurkat cells; assay: Induction of apoptosis, Annexin V / 7AAD flow cytometry; assay type: cell-based; conditions: 24 h; for apoptosis-inducing effect, dependence on dose: 0.1-0.3 µM
# Method: We studied the new macrodiolides for the induction of apoptosis and for the effect on the cell cycle. For this purpose, we chose the Jurkat, K562, and U937 cell lines. Apoptosis was studied by flow cytofluorimetry using Annexin V and 7-aminoactinomycin D (7AAD) (Guava Nexin reagent (Millipore, Bedford, MA, USA)). After incubation, the cells were analyzed using a NovoCyte™ 2000 Flow Cytometry System (ACEA). Apoptotic cells are characterized by externalization of the phosphatidylserine (PS) phospholipid, which is normally located, in living cells, on the inner surface of the cell membrane. The phospholipid location on the outer membrane surface can be detected from early apoptosis up to complete cell degradation. […] The use of Annexin V in combination with 7AAD allows simultaneous discrimination between viable cells (V–/7AAD–), early apoptotic cells (V+/7AAD–), and late apoptotic or necrotic cells (V+/7AAD+).
# Induction of apoptosis tests were carried out following the known procedure. Apoptosis was determined by flow cytometric analysis of Annexin V and 7-aminoactinomycin D staining. After treatment, cells during 24 h were harvested, washed 1–2 times with phosphate-buffered saline (PBS), and centrifuged at 400× g for 5 min. Cell pellets were resuspended in 200 μL of flow cytometry staining buffer (PBS without Ca^2+and Mg^2+, 2.5% FBS). Then, 200 μL of Guava Nexin reagent (Millipore, Bedford, MA, USA) were added to 5 × 10^5 cells in 200 μL, and the cells were incubated with the reagent for 20 min at room temperature in the dark. At the end of incubation, the cells were analyzed on a NovoCyteTM 2000 FlowCytometry System (ACEA, San Diego, CA, USA).
# [8] = test system: Jurkat cells; assay: Mitochondrial damage, MitoSense Red / Annexin V-CF488A / 7-AAD (FlowCellect MitoDamage Kit); assay type: cell-based; conditions: for percentage of Jurkat tumor cells with reduced Δψ: 4 h (Figure 4)
# Text: The changes in the mitochondrial membrane potential (ΔΨ) in Jurkat cells induced by treatment with compounds 8a, 8b, and 8c were detected using the MitoSense Red, a fluorescent dye, which is mainly accumulated in mitochondria and responds to changes in the membrane potential. The viable whole-body cells induce a high fluorescence level of MitoSense Red, whereas cells with dissipated mitochondrial membrane potential cause much lower fluorescence of MitoSense Red or no fluorescence. Annexin V and 7AAD are two dyes commonly used to detect apoptotic cells. […] Thus, using three different dyes, MitoSense Red, Annexin V (CF488A), and 7-AAD, we analyzed the dissipation of the mitochondrial membrane potential and the related apoptosis in Jurkat tumor cells in response to the action of synthesized macrodiolides (Figure 4).
# Mitochondrial damage tests were carried out following the known procedure. Cytometric assay (Millipore’s FlowCellect™MitoDamage Kit, Merck, Burlington, MA, USA) that allowed multiparametric evaluation of three cell health markers: change in mitochondrial potential (early apoptosis and cellular stress), phosphatidylserine expression on the cell surface […], and membrane permeabilization (cell death), was used.
# [9] = test system: Jurkat cells; assay: Cell cycle analysis (Guava Cell Cycle Reagent); assay type: cell-based; conditions: IC50 concentrations (8a 0.15 µM, 8b 0.16 µM, 8c 0.13 µM), 24 h
# Method: Cell cycle analysis was carried out following the known procedure. Guava Cell Cycle Reagent (Millipore, Burlington, MA, USA) was used. Samples were analyzed on a NovoCyteTM 2000 FlowCytometry System (ACEA, San Diego, CA, USA).
# [10] = test system: HT-29 human colon cancer cells; set-up: method as in PMID 12530851, PMID 16551088; conditions: HT-29 cell line; cited from earlier work
SMILES,IC50 [1] [nM],IC50 [2] [nM],IC50 [3] [nM],IC50 [4] [nM],IC50 [5] [nM],IC50 [6] [nM],"apoptosis-inducing effect, dependence on dose [7]",percentage of Jurkat tumor cells with reduced Δψ ([8]; 0.15 µM) [%],Freq G1 (percentage of cells in G0/G1 phase) [9] [%],"An+,PI+ cells (late apoptosis) ([7]; 0.1 µM) [%]","An+,PI+ cells (late apoptosis) ([7]; 0.3 µM) [%]",PI+ cells (necrotic) ([7]; 0.3 µM) [%],action on mitochondria (reduction of mitochondrial potential) compared with staurosporine [8],"percentage of apoptotic cells (early apoptosis and late apoptosis) ([8]; 0.15 µM, 4 h) [%]",Freq Sub-G1 (cells in the sub-G0-G1 range) [9] [%],IC50 [10] [µg/mL]
"O=C1OCCCCCC/C=C\CC/C=C\CCCCCCOC(=O)c2ccccc2OCc2ccc(cc2)COc2ccccc21 [8c, (16Z,20Z)-2,6,9,28-tetraoxa-1,7(1,2),4(1,4)-tribenzenacyclononacosaphane-16,20-diene-8,29-dione]",190 ± 10,1210 ± 90,130 ± 10,340 ± 30,270 ± 20,3190 ± 280,dose dependent,26.26,55.93,–,–,–,–,–,–,–
"O=C1OCCCCCC/C=C\CC/C=C\CCCCCCOC(=O)c2ccccc2OCc2cccc(c2)COc2ccccc21 [8b, (16Z,20Z)-2,6,9,28-tetraoxa-1,7(1,2),4(1,3)-tribenzenacyclononacosaphane-16,20-diene-8,29-dione]",240 ± 20,1680 ± 140,160 ± 10,390 ± 40,310 ± 30,3480 ± 320,dose dependent,41.71,59.16,64.36,58.0,26.49,comparable with the action of staurosporine,58.15,4.13,–
"O=C1OCCCC/C=C\CC/C=C\CCCCOC(=O)c2ccccc2OCc2ccccc2COc2ccccc21 [7a, (11Z,15Z)-7,8,9,10,13,14,17,18,19,20,28,33-dodecahydro-5H,22H-tribenzo[c,g,k][1,5,10,14]tetraoxacyclooctacosine-5,22-dione]",940 ± 80,3860 ± 340,490 ± 40,760 ± 80,560 ± 60,7120 ± 590,–,–,–,–,–,–,–,–,–,–
"O=C1OCCC/C=C\CC/C=C\CCCOC(=O)c2ccccc2OCc2ccc(cc2)COc2ccccc21 [6c, (13Z,17Z)-2,6,9,22-tetraoxa-1,7(1,2),4(1,4)-tribenzenacyclotricosaphane-13,17-diene-8,23-dione]",400 ± 30,1760 ± 160,340 ± 30,580 ± 50,460 ± 40,4220 ± 390,–,–,–,–,–,–,–,–,–,–
Oc1cccc(C23C=C4CN(CCc5ccc(c(O)c5)-c5ccc(O)cc54)C2Cc2cccc(O)c23)c1 (centres unmarked) [Haouamine A],–,–,–,–,–,–,–,–,–,–,–,–,–,–,–,0.1
"O=C1OCCCC/C=C\CC/C=C\CCCCOC(=O)c2ccccc2OCc2ccc(cc2)COc2ccccc21 [7c, (14Z,18Z)-2,6,9,24-tetraoxa-1,7(1,2),4(1,4)-tribenzenacyclopentacosaphane-14,18-diene-8,25-dione]",890 ± 90,3470 ± 310,350 ± 30,590 ± 40,390 ± 30,6550 ± 610,–,–,–,–,–,–,–,–,–,–
"O=C1OCCCC/C=C\CC/C=C\CCCCOC(=O)c2ccccc2OCc2cccc(c2)COc2ccccc21 [7b, (14Z,18Z)-2,6,9,24-tetraoxa-1,7(1,2),4(1,3)-tribenzenacyclopentacosaphane-14,18-diene-8,25-dione]",970 ± 90,4210 ± 390,940 ± 80,1490 ± 110,1170 ± 90,7690 ± 720,–,–,–,–,–,–,–,–,–,–
"O=C1OCCCCCC/C=C\CC/C=C\CCCCCCOC(=O)c2ccccc2OCc2ccccc2COc2ccccc21 [8a, (13Z,17Z)-7,8,9,10,11,12,15,16,19,20,21,22,23,24,32,37-hexadecahydro-5H,26H-tribenzo[c,g,k][1,5,10,14]tetraoxacyclodotriacontine-5,26-dione]",220 ± 20,1440 ± 110,150 ± 20,370 ± 20,300 ± 20,3370 ± 290,dose dependent,19.36,63.04,–,–,–,comparable with the action of staurosporine,–,–,–
"O=C1OCCC/C=C\CC/C=C\CCCOC(=O)c2ccccc2OCc2ccccc2COc2ccccc21 [6a, (10Z,14Z)-7,8,9,12,13,16,17,18,26,31-decahydro-5H,20H-tribenzo[c,g,k][1,5,10,14]tetraoxacyclohexacosine-5,20-dione]",430 ± 30,1940 ± 170,390 ± 30,610 ± 50,490 ± 40,4710 ± 420,–,–,–,–,–,–,–,–,–,–
"O=C1OCCC/C=C\CC/C=C\CCCOC(=O)c2ccccc2OCc2cccc(c2)COc2ccccc21 [6b, (13Z,17Z)-2,6,9,22-tetraoxa-1,7(1,2),4(1,3)-tribenzenacyclotricosaphane-13,17-diene-8,23-dione]",440 ± 40,2180 ± 210,480 ± 50,640 ± 60,510 ± 50,5090 ± 470,–,–,–,–,–,–,–,–,–,–
